Patent US7642274B2, “Inhibitor of pain threshold decrease” (Santen Pharmaceutical Co., Ltd., priority 2003, dated 2010)
Counter-ions that a name gives are not always drawn.

Assays:
[1] = tested on: repetitive cold stress rat models; assay: Test for inhibition of pain threshold decrease by repetitive cold stress (continuous administration), Randall-Selitto method; format: in vivo; settings: for inhibition in vivo at 3 mg/kg: Rattus norvegicus, 192 h, day 8 after applying the repetitive cold stress, orally 3 mg/kg once a day, with stress, average of 5 or 6 cases, read-out: Rate of inhibition of pain threshold decrease (%); for inhibition in vivo at 3 mg/kg / Rate of inhibition of pain threshold decrease (%): po; for Rate of inhibition of pain threshold decrease (%): rat, in vivo
[2] = tested on: repetitive cold stress rat models; assay: Test for inhibition of pain threshold decrease by repetitive cold stress (single administration), Randall-Selitto method; format: in vivo; settings: 24 hours after single administration on day 8 of repetitive cold stress; orally 3 mg/kg; with stress; average of 6 cases

Row | Compound | inhibition in vivo at 3 mg/kg [1] [%] | Pain threshold (mmHg) [2] [mmHg] | Rate of inhibition of pain threshold decrease (%) [2] [%] | Rate of inhibition of pain threshold decrease (%) ([1]; 3 mg/kg) | further results
1 | COc1ccc(OCCCN(CCO)C(C)C)c(C2Sc3cc(Cl)ccc3N2C(C)=O)c1.Cl (single isomer, unassigned; (+)) [Compound A, (+)-3-acetyl-6-chloro-2-[2-(3-(N-(2-hydroxyethyl)-N-isopropylamino)propoxy)-5-methoxyphenyl]benzothiazoline hydrochloride] | 52.1 | 21.7 | 0 | – | –
2 | CC(=O)OC(C(=O)O)C(OC(C)=O)C(=O)O.COCCN(CCCOc1ccc(OC)cc1C1Sc2cc(Cl)ccc2N1C(C)=O)C(C)C (single isomer, unassigned; (+)) [Compound B, (+)-3-acetyl-6-chloro-2-[2-(3-(N-(2-methoxyethyl)-N-isopropylamino)propoxy)-5-methoxyphenyl]benzothiazolinediacetyl tartrate] | – | 21.5 | −1.9 | 53.9 | –
3 | CC(=O)OC(C(=O)O)C(OC(C)=O)C(=O)O.CCOCCN(CCCOc1ccc(OC)cc1C1Sc2cc(Cl)ccc2N1C(C)=O)C(C)C (single isomer, unassigned; (+)) [Compound C, (+)-3-acetyl-6-chloro-2-[2-(3-(N-(2-ethoxyethyl)-N-isopropylamino)propoxy)-5-methoxyphenyl]benzothiazolinediacetyl tartrate] | – | 21.7 | 0 | 73.4 | –
4 | COc1ccc(OCCCCl)c(C2Sc3cc(Cl)ccc3N2C(C)=O)c1 (single isomer, unassigned; (+)) [Compound F, (+)-3-acetyl-6-chloro-2-[2-(3-chloropropoxy)-5-methoxyphenyl]benzothiazoline hydrochloride] | 43.1 | – | – | – | –
5 | COc1ccc(OCCCN(CCOC(C)=O)C(C)C)c(C2Sc3cc(Cl)ccc3N2C(C)=O)c1 (single isomer, unassigned; (+)) [Compound H, (+)-2-[2-(3-(N-(2-acetoxyethyl)-N-isopropylamino)propoxy)-5-methoxyphenyl]-3-acetyl-6-chlorobenzothiazoline hydrochloride] | 34.5 | – | – | – | –
6 | COCOCCN(CCCOc1ccc(OC)cc1C1Sc2cc(Cl)ccc2N1C(C)=O)C(C)C.Cl (single isomer, unassigned; (+)) [Compound I, (+)-3-acetyl-6-chloro-2-[2-(3-(N-isopropyl-(N-methoxymethyloxyethyl)amino)propoxy)-5-methoxyphenyl]benzothiazoline hydrochloride] | – | – | – | 43.1 | –
7 | COc1ccc(OC(C)CCN(CCO)C(C)C)c(C2Sc3cc(Cl)ccc3N2C(C)=O)c1 (stereo not drawn) [Compound G, 3-acetyl-6-chloro-2-[2-(3-(N-(2-hydroxyethyl)-N-isopropylamino)-1-methylpropoxy)-5-methoxyphenyl]benzothiazoline hydrochloride] | 32.8 | – | – | – | –
8 | CCOCCN(CCCOc1ccc(OC)cc1C1Sc2cc(Cl)ccc2N1C(C)=O)C(C)C.Cl (stereo not drawn) [Compound K, 3-acetyl-6-chloro-2-[2-(3-(N-(2-ethoxyethyl)-N-isopropylamino)propoxy)-5-methoxyphenyl]benzothiazolinediacetyl hydrochloride] | – | – | – | – | Rate of inhibition of pain threshold decrease (%) ([1]; 10 mg/kg): 62.7%
9 | O=C(O)Cc1ccccc1Nc1c(Cl)cccc1Cl [Compound L, Diclofenac, reference compound] | – | – | – | – | activity on inhibiting a decrease in pain threshold ([1]; result in words, continuous administration once a day, day 8 of repetitive cold stress): not observed at all
